Measured values reported in patent publication US5545669A, “Anti-inflammatory compounds” (priority 1994, dated 1996).

Legend:
[1] = test system: mouse bone marrow-derived mast cells; assay: Assay (e): arachidonate content of cellular phospholipids; type: cell-based; conditions: 24-48 hours in culture
Protocol: The following is the method for assessing the ability of a compound to alter arachidonate content of cellular phospholipids, which can be generalized for any desired cell. Specifically, mouse bone marrow-derived mast cells are removed from culture and provided with exogenous [^3 H]arachidonic acid for 30 minutes. The labeled arachidonic acid which had not been incorporated into the cells is then removed by washing the cells 2 times with an albumin-containing buffer. At that point, the cells are treated with various concentrations of CoA-IT inhibitors and then placed back in culture for 24-48 hours. The phospholipids are extracted by the method of Bligh and Dyer [Can. J. Biochem. Physiol. (1959) 37,911-917] and phospholipids separated by normal phase HPLC by the method of Chilton [Methods Enzymol. (1990)187, 157-166]. The radioactive and mole quantities of arachidonate in complex lipids are determined. At this point, cellular lipid extracts are treated with KOH (0.5M) to remove fatty acids from complex lipids (phospholipids) and the quantities of arachidonate in these extracts can then be determined by various methods, including gas chromatography and mass spectrometry (Chilton [Methods Enzymol. (1990)187, 157-166]).

human neutrophils = assay: Assay (c): Arachidonic acid release assay, A23187-challenged human neutrophils; type: cell-based; conditions: calcium ionophore A23187 2 μM
Protocol: Human neutrophils are obtained in the laboratory using three different methods. One method uses leukophoresis packs from normal humans and neutrophils are isolated using the histopaque-1077 technique. The blood is centrifuged at 300×g for 10 minutes. The cell pellets are resuspended in PBS composed of 137 mM NaCI, 8.8 mM Na2HPO4, 1.5 mM KH2 PO4, 2.7 mM KCI (Dulbecco's Gibco Laboratories, Long Island, N.Y.) and layered over histopaque-1077 (Sigma, St. Louis, Mo.). The pellets are collected after centrifugation (300×g for 30 minutes) and washed once in PBS. The cell pellets are exposed briefly to deionized water to lyse any erythrocytes. The remaining cells are collected by centrifugation, suspended in PBS, counted and identified after cytospinning and staining. The final leukocyte preparation will be of greater than 95% purity and viability.
The second method isolates human neutrophils from fresh heparinized normal blood using the Histopaque-1077 technique. […] The remaining cells are collected by centrifugation, suspended in PBS, counted and identified after cytospinning and staining. […]
The third method isolates human neutrophils from freshly drawn heparinized normal blood using the Percoll technique. […] The neutrophils are suspended in PBS, counted and identified after cytospinning and staining. […]

## O=C(O)c1ccccc1Oc1ccc(C(F)(F)F)cc1NS(=O)(=O)c1cc(C(F)(F)F)cc(C(F)(F)F)c1 [Example 1, 2-[2-[3,5-Bis(trifluoromethyl)phenylsulfonamido]-4-trifluoromethylphenoxy]benzoic acid]
[1]
  decreasing the arachidonic content: positive activity
Human neutrophils
  inhibition of arachidonic acid release: positive activity
